Laboratory results taken from patent US12215127B2 (priority 2020, dated 2025).

Target: Clostridium perfringens CGH (Clostridium perfringens, UniProt P54965)
Format: binding
Conditions: 0-500 μM, 37° C., 24 h, in-gel fluorescence

Sequence of Clostridium perfringens CGH (P54965 whole entry, looked up): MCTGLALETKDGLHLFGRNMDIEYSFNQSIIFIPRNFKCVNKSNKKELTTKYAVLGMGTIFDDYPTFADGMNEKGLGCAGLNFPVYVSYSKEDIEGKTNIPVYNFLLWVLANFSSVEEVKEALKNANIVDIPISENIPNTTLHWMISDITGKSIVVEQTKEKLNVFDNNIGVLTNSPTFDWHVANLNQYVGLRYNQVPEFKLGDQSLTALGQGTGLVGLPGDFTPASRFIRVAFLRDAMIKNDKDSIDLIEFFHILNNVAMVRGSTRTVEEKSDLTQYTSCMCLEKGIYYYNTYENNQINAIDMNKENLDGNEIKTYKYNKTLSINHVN

Row | Compound | labeling of C. perfringens BSH
1 | Cc1cccc(C)c1C(=O)OCC(=O)CC[C@@H](C)[C@H]1CC[C@H]2[C@@H]3[C@H](O)C[C@@H]4C[C@H](N=[N+]=[N-])CC[C@]4(C)[C@H]3CC[C@]12C [CDCA-AOMK, N3-CDCA-AOMK] | label Clostridium perfringens bile salt hydrolase (BSH)
2 | Cc1cccc(C)c1C(=O)OCC(=O)CC[C@@H](C)[C@H]1CC[C@H]2[C@@H]3CC[C@@H]4C[C@H](N=[N+]=[N-])CC[C@]4(C)[C@H]3C[C@H](O)[C@]12C [DCA-AOMK, N3-DCA-AOMK] | label Clostridium perfringens bile salt hydrolase (BSH)
